These results are taken from patent publication US8809001B2, “High throughput assays for inhibitors and activators of PAQR receptors” (University of Florida Research Foundation, Inc., priority 2007, dated 2014).

The target in one assay is T1, PAQR9 (Homo sapiens, UniProt Q6ZVX9).
T1 construct: expressed in transfected cells; host or cells: Saccharomyces cerevisiae BY4742, GAL1-driven pYES260 plasmid
T1 sequence (Q6ZVX9 1-377): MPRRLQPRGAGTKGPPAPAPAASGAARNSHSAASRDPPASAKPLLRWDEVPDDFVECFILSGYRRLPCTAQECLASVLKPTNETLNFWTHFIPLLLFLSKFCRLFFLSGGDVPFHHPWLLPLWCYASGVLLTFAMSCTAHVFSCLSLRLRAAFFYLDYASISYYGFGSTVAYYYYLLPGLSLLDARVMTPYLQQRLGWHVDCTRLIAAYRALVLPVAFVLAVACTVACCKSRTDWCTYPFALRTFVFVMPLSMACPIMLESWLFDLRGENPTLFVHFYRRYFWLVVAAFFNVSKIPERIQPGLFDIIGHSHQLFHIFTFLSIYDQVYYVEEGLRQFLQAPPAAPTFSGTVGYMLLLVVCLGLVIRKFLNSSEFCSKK
Description: FET3-lacZ reporter repression in yeast expressing PAQR9. Type of assay: cell-based. An excerpt: Plasmids and primers. Human PAQRs were cloned into various vectors by PCR from commercially/publically available cDNAs. PAQRs were cloned into the pYES260 (Melcher, 2000), pRS316 (Liu et al., 1992) or pGREG536 (Jansen et al., 2005) expression vectors using gap repair. The pJK90 plasmid containing a Dual Topology Reporter (DTR)-tagged OST4 gene driven by the constitutive TPI1 promoter was kindly provided by Dr. Gunnar von Heijne (Stockholm University) (Kim et al., 2003). The OST4 open reading frame in pJK90 was replaced with the PAQR6 and mPRα open reading frames by gap repair. Primers for all cloning reactions are listed herein. Proteins expressed in pYES260 have an N-terminal 6×-histidine tag followed by a TEV protease cleavage site. Proteins expressed in pGREG536 have an N-terminal 7×-HA tag. Proteins expressed in the pRS316 vector are untagged. The pYES260, pRS316 and pGREG536 vectors allow for galactose-inducible expression via the GAL1 promoter. […] The FET3-lacZ plasmid was previously described (Kupchak et al., 2007). Plasmids derived from pADM4 carrying hyperactive alleles of Gpa1p (Gpa1p^Q323L) (Slessareva et al., 2006) and Gpa2p (Gpa2p^Q300L) (Harashima et al., 2002) driven by the ADH1 promoter were kindly provided by Dr. Henrik Dohlman (UNC Chapel Hill). A pRS316-based plasmid containing the STE2 gene under the control of the GAL1 promoter (Feng et al., 2000) was kindly provided by Dr. Nicholas G. Davis (Wayne State University).
Assays and growth conditions. Strains were maintained using standard protocol and grown in synthetic defined (SD) media with the appropriate amino acids to match the auxotrophies of the individual strains. Low Iron Medium (LIM) contains EDTA to limit iron-bioavailability and its composition has been previously described (Kupchak et al., 2007). […] Cells were allowed to grow to mid-log phase at which time the activity of the FET3 gene was monitored using a FET3-lacZ promoter-reporter construct. lacZ activities are presented as a percentage of activity seen in untreated cells expressing the appropriate empty expression vector control. […]

A further assay concerns the target mPRs. The settings on record: determined by Thomas et al. (2008); read-out: Kd for progesterone binding to mPRs; cited from earlier work.

The compound `CC(=O)[C@H]1CC[C@H]2[C@@H]3CCC4=CC(=O)CC[C@]4(C)[C@H]3CC[C@]12C` [Progesterone, progesterone] gave an EC50 at PAQR9 (PAQR9, Table 3) of 13.8 nM. For the same compound, the “EC50 for progesterone activation of PAQR9 relative to the other four Class II receptors” value on PAQR9 (higher than the other four Class II receptors) is “approximately 10 fold”. Further, the Kd at mPRs is around 5 nM.

The EC50 is the concentration at which the effect is half-maximal. Read a low EC50 as an effect from little substance. By Kd is commonly meant the free concentration of one partner at which half of the binding sites on the other are occupied at equilibrium, for simple one-to-one binding.
